Key:
[1] = log k (capacity factor) was measured by micellar liquid chromatography in Brij35 medium; details: 0.04 M Brij35
physchem [2] = details: octanol/water
[3] = Protonation constant of the compound.; format: ADME
physchem [4] = details: buffer, pH 7.4
Description: log P values determined at pH 7.4

[5] = Protonation constant by using Brij35 as a medium; format: ADME
[6] = log P value at pH 7.4; format: physicochemical; details: buffer
[7] = Partition coefficient (logP); format: physicochemical; details: octanol/water
[8] = Volume of distribution in the plasma fluid was determined; format: ADME, organism-based
Histamine H2 receptor = Histamine H2 receptor (Cavia porcellus, UniProt P47747); experiment: Inhibitory activity against brain adenylate cyclase Histamine H2 receptor; format: functional
[9] = Therapeutic plasma levels for the compound was evaluated.; format: ADME, cell-free
in vivo = details: plasma
Description: Plasma clearance for the compound was determined.

[10] = Half life period is estimated; format: ADME
[11] = target: Serotonin (5-HT) receptor; experiment: Compound was tested for its inhibitory activity against 5-hydroxytryptamine receptor; format: protein assay, Rattus norvegicus
[12] = target: T1, Alpha-1A adrenergic receptor (Rattus norvegicus, UniProt P43140); experiment: Compound was tested for its inhibitory activity against Alpha-1 adrenergic receptor
T1 sequence (P43140 whole entry): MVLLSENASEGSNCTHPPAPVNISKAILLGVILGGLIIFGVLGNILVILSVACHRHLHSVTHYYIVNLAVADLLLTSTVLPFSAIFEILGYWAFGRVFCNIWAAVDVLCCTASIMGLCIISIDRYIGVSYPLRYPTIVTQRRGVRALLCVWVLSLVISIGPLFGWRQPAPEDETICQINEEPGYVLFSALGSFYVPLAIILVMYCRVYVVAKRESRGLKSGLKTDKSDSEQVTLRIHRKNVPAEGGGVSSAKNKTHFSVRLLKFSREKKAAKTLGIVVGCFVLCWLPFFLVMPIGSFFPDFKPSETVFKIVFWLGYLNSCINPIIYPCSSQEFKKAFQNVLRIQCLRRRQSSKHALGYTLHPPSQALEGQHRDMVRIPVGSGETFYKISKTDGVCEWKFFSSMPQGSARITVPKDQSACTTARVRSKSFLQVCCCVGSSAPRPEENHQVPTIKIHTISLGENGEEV

[13] = Compound was tested for its binding affinity towards brain (neocortex) Adenylate cyclase; parameters: species or system Cavia porcellus
[14] = Compound was tested for its binding affinity towards brain (Hippocampus) Adenylate cyclase; parameters: species or system Cavia porcellus
Histamine H1 receptor = Histamine H1 receptor (Rattus norvegicus, UniProt P31390); experiment: Compound tested for its inhibitory activity against Histamine H1 receptor
[15] = Compound was tested for its inhibitory activity against Noradrenaline receptor; parameters: species or system Rattus norvegicus
[16] = buffer, pH 7.4
Description: log P values determined at pH 7.4

[17] = octanol/water

Chain of Histamine H1 receptor (P31390 whole entry): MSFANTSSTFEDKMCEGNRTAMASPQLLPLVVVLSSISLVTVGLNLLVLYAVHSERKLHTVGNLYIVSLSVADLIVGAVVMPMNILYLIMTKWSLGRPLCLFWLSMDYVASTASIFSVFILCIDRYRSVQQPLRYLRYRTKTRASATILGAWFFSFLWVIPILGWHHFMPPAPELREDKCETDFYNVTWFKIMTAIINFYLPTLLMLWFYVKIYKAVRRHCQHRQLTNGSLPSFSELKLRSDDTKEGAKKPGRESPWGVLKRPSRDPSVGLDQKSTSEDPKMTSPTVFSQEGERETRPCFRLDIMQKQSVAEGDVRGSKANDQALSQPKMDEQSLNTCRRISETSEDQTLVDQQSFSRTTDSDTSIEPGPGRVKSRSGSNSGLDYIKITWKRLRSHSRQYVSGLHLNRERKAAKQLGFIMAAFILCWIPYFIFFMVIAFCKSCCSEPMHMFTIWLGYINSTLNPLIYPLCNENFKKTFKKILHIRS
Chain of Histamine H2 receptor (P47747 whole entry): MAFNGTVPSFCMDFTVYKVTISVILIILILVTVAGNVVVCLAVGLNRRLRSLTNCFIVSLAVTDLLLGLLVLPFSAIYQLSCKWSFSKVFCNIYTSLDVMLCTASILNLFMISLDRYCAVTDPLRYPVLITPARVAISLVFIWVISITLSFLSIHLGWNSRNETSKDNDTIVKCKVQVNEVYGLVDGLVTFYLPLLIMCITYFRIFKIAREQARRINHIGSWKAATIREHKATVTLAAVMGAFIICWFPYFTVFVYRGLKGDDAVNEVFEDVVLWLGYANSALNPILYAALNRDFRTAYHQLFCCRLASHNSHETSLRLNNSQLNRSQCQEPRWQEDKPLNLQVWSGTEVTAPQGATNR

Structure (SMILES) | Log K [1] | logP (physchem [2]) | pKa [3] | logD (physchem [4]) | pKa [5] | logD [6] | logP [7] | Vd [8] | IC50 (Histamine H2 receptor) | T.P.L [9] | clearance (in vivo) | half-life [10] | IC50 [11] | IC50 [12] | Ki [13] | Ki [14] | IC50 (Histamine H1 receptor) | IC50 [15] | logD [16] | logP [17]
CN(C)CCC=C1c2ccccc2C(C)(C)c2ccccc21 | 1.97 | 5.12 | 7.38 | 4.83 | – | – | – | – | – | – | – | – | – | – | – | – | – | – | – | –
O=C(O)CCCCCCNC1c2ccccc2CCc2ccccc21 [AMINEPTINE] | 1.09 | – | – | – | 5.24 | 2.26 | 2.44 | – | – | – | – | – | – | – | – | – | – | – | – | –
CN(C)CCC=C1c2ccccc2CCc2ccccc21 [AMITRIPTYLINE] | 1.84 | 4.64 | 9.42 | 2.62 | – | – | – | 15 L/kg | 660 nM | 180 ng/mL | 1200 mL/min | 27.5 h | 44 nM | 20 nM | 60 nM | 53 nM | 20 nM | 41 nM | – | –
Clc1ccc2c(c1)C(N1CCNCC1)=Nc1ccccc1O2 [AMOXAPINE] | 1.63 | 3.89 | 7.6 | – | – | – | – | – | – | – | – | – | – | – | – | – | – | – | 3.48 | –
CN(C)CCCN1c2ccccc2CCc2ccc(Cl)cc21 [CLOMIPRAMINE] | 1.89 | – | 9.38 | 3.32 | – | – | – | 13.5 L/kg | 720 nM | 90 ng/mL | 1210 mL/min | – | – | – | 43 nM | 55 nM | – | 46 nM | – | 5.19
CNCCCN1c2ccccc2CCc2ccccc21 [DESIPRAMINE] | 1.46 | – | – | – | – | – | – | 22 L/kg | 3800 nM | 212.5 ng/mL | – | 37.5 h | – | – | 320 nM | 350 nM | – | 2 nM | – | –
CN(C)CCC=C1c2ccccc2CSc2ccccc21 [DOTHIEPIN] | 1.74 | 4.52 | 9.25 | 2.66 | – | – | – | – | – | – | – | – | – | – | – | – | – | – | – | –
CN(C)CC/C=C1/c2ccccc2COc2ccccc21 [DOXEPIN] | 1.69 | 3.88 | 9 | 2.27 | – | – | – | – | 1600 nM | – | 850 mL/min | 16.5 h | – | 10 nM | 190 nM | 170 nM | – | 65 nM | – | –
CN(C)CCCN1c2ccccc2CCc2ccccc21 [IMIPRAMINE] | 1.8 | – | – | – | – | – | – | 30 L/kg | 1900 nM | 275 ng/mL | – | – | – | – | 160 nM | 160 nM | 60 nM | 46 nM | – | –
CN1CCN(C2=Nc3ccccc3Oc3ccc(Cl)cc32)CC1 [LOXAPINE] | 1.86 | – | 6.6 | – | – | – | – | – | – | – | – | – | – | – | – | – | – | – | – | –
CNCCCC12CCC(c3ccccc31)c1ccccc12 [MAPROTILINE] | 1.47 | 4.22 | 10.5 | 1.12 | – | – | – | – | – | – | – | – | – | – | – | – | – | – | – | –
CN1CCN2c3ccccc3Cc3ccccc3C2C1 (stereo not given) [MIANSERIN] | 1.87 | 4.26 | 7.1 | 4.08 | – | – | – | 16 L/kg | 880 nM | – | – | 25 h | – | – | 71 nM | 65 nM | – | – | – | –
CNCCC=C1c2ccccc2CCc2ccccc21 [NORTRIPTYLINE] | 1.52 | 4.32 | 9.7 | 2.02 | – | – | – | 35 L/kg | 7000 nM | – | 1320 mL/min | 35.5 h | – | 40 nM | 280 nM | 450 nM | 50 nM | 9 nM | – | –
c1ccc2c(c1)CCc1ccccc1N2C1CN2CCC1CC2 (stereo not given) [QUINUPRAMINE] | 1.62 | 4.94 | – | 1.36 | 7.85 | – | – | – | – | – | – | – | – | – | – | – | – | – | – | –
CC(CN(C)C)CN1c2ccccc2CCc2ccccc21 (stereo not given) [TRIMIPRAMINE] | 1.86 | 4.73 | – | – | 6.77 | – | – | – | – | – | – | – | – | – | – | – | – | – | 4.64 | –

Reference: ChEMBL document CHEMBL1132276, “Development of predictive retention-activity relationship models of tricyclic antidepressants by micellar liquid chromatography” (J Med Chem, 1999)
